From patent US12527774B2, “Estrogen-related receptor alpha modulators” (LEAD PHARMA HOLDING B.V., priority 2019, dated 2026)

Target: ERRα ligand binding domain (ERRα-LBD) (Homo sapiens (Human), UniProt P11474)
Assay: ERRα AlphaScreen Assay
Assay type: biochemical
Details: disruption of binding of ERRα-LBD protein to biotin-PGC1α-3 co-activator peptide; for IC50: read-out: mean pIC50 (converted)
Description: This assay was based on the knowledge that nuclear receptors interact with cofactors in a ligand dependent matter. The sites of interaction have been mapped to LXXLL motifs that are present in the co-activator sequences. Short peptide sequences that contain the LXXLL motif mimic the behavior of full length co-activators.
The ERRα AlphaScreen Assay described here relies on the interaction of the co-activator peptide with purified bacterial-expressed ERRα ligand binding domain (ERRα-LBD); upon ligand binding the ERRα protein can undergo a conformational change resulting in a loss of co-activator binding.
Compounds of the present invention were tested for their ability to disrupt binding of ERRα-LBD protein to co-activator peptide using AlphaScreen® Technology (Perkin Elmer). ERRα-LBD protein was expressed in E. coli as a 6×His Small Ubiquitin-like Modifier (SUMO) fusion. Bacterial expressed 6His-SUMO-ERRα-LBD protein was purified using affinity chromatography. All experiments were performed at room temperature in 384-well white non-binding plates (Greiner) using 50 mM Tris-HCl pH 7.5, 100 mM NaCl, 0,1% Pluronic F-127, 0.05% BSA and 5 mM TCEP as the buffer. Final DMSO concentration was 1% in the assay. Compounds were assayed in triplicate and: incubated with 0.81 nM ERRα-LBD protein and 10 μg/mL streptavidin donor beads and 10 μg/mL Ni-chelate acceptor beads for 1 hour at room temperature; followed by a 2-hour incubation with 15 nM biotin-PGC1α-3 peptide (QRRPCSELLKYLTTNDDPP) corresponding to amino acids 202 to 220.
The AlphaScreen signal was measured using an Envision Xcite plate reader (Perkin Elmer). Data was normalized, and curve fitting analysis was performed in GraphPad Prism 7 using a four-parameter dose-response fit.
As multiple IC50 values were annotated for the same compound-protein pair, a mean pIC50 for each compound was determined.

Sequence of ERRα ligand binding domain (ERRα-LBD) (P11474 193-421): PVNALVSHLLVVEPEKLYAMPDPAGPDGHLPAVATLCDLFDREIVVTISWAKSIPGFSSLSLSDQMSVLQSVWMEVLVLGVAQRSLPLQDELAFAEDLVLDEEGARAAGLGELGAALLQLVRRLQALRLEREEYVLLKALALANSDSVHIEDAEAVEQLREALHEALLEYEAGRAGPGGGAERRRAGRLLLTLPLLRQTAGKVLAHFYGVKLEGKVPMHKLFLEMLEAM

SMILES: O=C1CC(c2ccc(COc3ccccc3C(F)(F)F)c(OC(F)(F)F)c2)c2c[nH]nc2N1 (stereo not drawn) [Example 108, 4-[3-(trifluoromethoxy)-4-{[2-(trifluoromethyl)phenoxy]methyl}phenyl]-2H,4H,5H,6H,7H-pyrazolo[3,4-b]pyridin-6-one]
- IC50: 0.01 to 0.1 µM

SMILES: O=C1CC(c2ccc(OCc3ccccc3C(F)(F)F)c(F)c2)c2c[nH]nc2N1 (stereo not drawn) [Example 74, 4-(3-fluoro-4-{[2-(trifluoromethyl)phenyl]methoxy}phenyl)-2H,4H,5H,6H, 7H-pyrazolo[3,4-b]pyridin-6-one]
- IC50: 0.01 to 0.1 µM

SMILES: COc1cc(C2CC(=O)Nc3n[nH]cc32)ccc1COc1ccc(C)cc1C (single isomer, unassigned; (-)) [Example 220, (−)-4-{4-[(2,4-dimethylphenoxy)methyl]-3-methoxyphenyl}-2H,4H,5H,6H,7H-pyrazolo[3,4-b]pyridin-6-one]
- mean pIC50: ≥ 8

SMILES: C#Cc1ccccc1COc1ccc(C2CC(=O)Nc3n[nH]cc32)cc1OC (stereo not drawn) [Example 44, 4-{4-[(2-ethynylphenyl)methoxy]-3-methoxyphenyl}-2H,4H,5H,6H,7H-pyrazolo[3,4-b]pyridin-6-one]
- IC50: 0.01 to 0.1 µM

SMILES: COc1cc(C2CC(=O)Nc3n[nH]nc32)ccc1OCc1ccc(N)cc1C(F)(F)F (stereo not drawn) [Example 136, 7-(4-{[4-amino-2-(trifluoromethyl)phenyl]methoxy}-3-methoxyphenyl)-2H,4H,5H,6H, 7H-[1,2,3]triazolo[4,5-b]pyridin-5-one]
- mean pIC50: ≥ 8

SMILES: COc1cc(C2CC(=O)Nc3n[nH]cc32)ccc1OCc1ccc(S(C)(=O)=O)cc1C(F)(F)F (stereo not drawn) [Example 37, 4-(4-{[4-methanesulfonyl-2-(trifluoromethyl)phenyl]methoxy}-3-methoxyphenyl)-2H,4H,5H,6H,7H-pyrazolo[3,4-b]pyridin-6-one]
- IC50: 0.1 to 1 µM

SMILES: COc1cc(C2CC(=O)Nc3n[nH]cc32)ccc1OCc1cccc(OCCO)c1C(F)(F)F (stereo not drawn) [Example 160, 4-(4-{[3-(2-hydroxyethoxy)-2-(trifluoromethyl)phenyl]methoxy}-3-methoxyphenyl)-2H,4H,5H,6H,7H-pyrazolo[3,4-b]pyridin-6-one]
- IC50: 0.1 to 1 µM

SMILES: COC(=O)Cc1ccc(COc2ccc(C3CC(=O)Nc4n[nH]cc43)cc2OC)c(C(F)(F)F)c1 (stereo not drawn) [Example 148, methyl 2-[4-(2-methoxy-4-{6-oxo-2H,4H,5H,6H,7H-pyrazolo[3,4-b]pyridin-4-yl}phenoxymethyl)-3-(trifluoromethyl)phenyl]acetate]
- IC50: 0.1 to 1 µM

SMILES: COc1cc(C2CC(=O)Nc3n[nH]cc32)ccc1OCc1ccc(C(=O)O)cc1C(F)(F)F (stereo not drawn) [Example 120, 4-(2-methoxy-4-{6-oxo-2H,4H,5H,6H, 7H-pyrazolo[3,4-b]pyridin-4-yl}phenoxymethyl)-3-(trifluoromethyl)benzoic acid]
- IC50: 0.1 to 1 µM

SMILES: COc1cc(C2CC(=O)Nc3n[nH]cc32)ccc1OCc1cccc2c1OC(C)(C)C2 (stereo not drawn) [Example 46, 4-{4-[(2,2-dimethyl-2,3-dihydro-1-benzofuran-7-yl)methoxy]-3-methoxyphenyl}-2H,4H,5H,6H, 7H-pyrazolo[3,4-b]pyridin-6-one]
- IC50: 0.1 to 1 µM

SMILES: O=C1CC(c2ccc(OCc3ccccc3C(F)(F)F)c(OC(F)(F)F)c2)c2c[nH]nc2N1 (stereo not drawn) [Example 69, 4-[3-(trifluoromethoxy)-4-{[2-(trifluoromethyl)phenyl]methoxy}phenyl]-2H,4H,5H, 6H, 7H-pyrazolo[3,4-b]pyridin-6-one]
- IC50: 0.01 to 0.1 µM

SMILES: COc1cc(C2CC(=O)Nc3ccsc32)ccc1OCc1ccccc1Cl (stereo not drawn) [Example 79, 7-{4-[(2-chlorophenyl)methoxy]-3-methoxyphenyl}-4H,5H,6H, 7H-thieno[3,2-b]pyridin-5-one]
- IC50: 0.1 to 1 µM

SMILES: COc1cc(-c2cc(=O)[nH]c3n[nH]cc23)ccc1OCc1ccc(C#N)cc1C(F)(F)F [Example 181, 4-[(2-methoxy-4-{6-oxo-2H,6H, 7H-pyrazolo[3,4-b]pyridin-4-yl}phenoxy)methyl]-3-(trifluoromethyl)benzonitrile]
- IC50: 0.01 to 0.1 µM

SMILES: O=C1CC(c2ccc(OCc3ccccc3C(F)(F)F)c(Cl)c2)c2c[nH]nc2N1 (stereo not drawn) [Example 72, 4-(3-chloro-4-{[2-(trifluoromethyl)phenyl]methoxy}phenyl)-2H,4H,5H,6H, 7H-pyrazolo[3,4-b]pyridin-6-one]
- IC50: 0.01 to 0.1 µM

SMILES: Nc1cc(C2CC(=O)Nc3n[nH]cc32)ccc1OCc1ccccc1C(F)(F)F (stereo not drawn) [Example 161, 4-(3-amino-4-{[2-(trifluoromethyl)phenyl]methoxy}phenyl)-2H,4H,5H,6H, 7H-pyrazolo[3,4-b]pyridin-6-one]
- IC50: 0.1 to 1 µM

SMILES: COc1cc(C2CC(=O)Nc3c[nH]nc32)ccc1OCc1ccccc1C(F)(F)F (stereo not drawn) [Example 87, 7-(3-methoxy-4-{[2-(trifluoromethyl)phenyl]methoxy}phenyl)-2H,4H,5H,6H, 7H-pyrazolo[4,3-b]pyridin-5-one]
- IC50: 0.01 to 0.1 µM

SMILES: COc1cc(C2CC(=O)Nc3n[nH]c(F)c32)ccc1OCc1ccccc1C(F)(F)F (stereo not drawn) [Example 95, 3-fluoro-4-(3-methoxy-4-{[2-(trifluoromethyl)phenyl]methoxy}phenyl)-2H,4H,5H,6H, 7H-pyrazolo[3,4-b]pyridin-6-one]
- IC50: 0.1 to 1 µM

SMILES: COc1cc(C2CC(=O)Nc3n[nH]cc32)ccc1OCc1ccc(CC(=O)O)cc1C(F)(F)F (stereo not drawn) [Example 151, 2-{4-[(2-methoxy-4-{6-oxo-2H,4H,5H,6H, 7H-pyrazolo[3,4-b]pyridin-4-yl}phenoxy)methyl]-3-(trifluoromethyl)phenyl}acetic acid]
- IC50: 0.1 to 1 µM

SMILES: COc1cc(C2CC(=O)Nc3n[nH]cc32)ccc1OCc1cc(C(F)(F)F)ccc1C(F)(F)F (stereo not drawn) [Example 14, 4-(4-{[2,5-bis(trifluoromethyl)phenyl]methoxy}-3-methoxyphenyl)-2H,4H,5H,6H, 7H-pyrazolo[3,4-b]pyridin-6-one]
- IC50: 0.01 to 0.1 µM

SMILES: O=C1CC(c2ccc(OCc3ccccc3C(F)(F)F)cc2)c2c[nH]nc2N1 (stereo not drawn) [Example 59, 4-(4-{[2-(trifluoromethyl)phenyl]methoxy}phenyl)-2H,4H,5H,6H,7H-pyrazolo[3,4-b]pyridin-6-one]
- IC50: 0.01 to 0.1 µM

SMILES: COc1cc(C2CC(=O)Nc3n[nH]cc32)c(F)cc1OCc1ccccc1C(F)(F)F (stereo not drawn) [Example 75, 4-(2-fluoro-5-methoxy-4-{[2-(trifluoromethyl)phenyl]methoxy}phenyl)-2H,4H,5H, 6H, 7H-pyrazolo[3,4-b]pyridin-6-one]
- IC50: 0.01 to 0.1 µM

SMILES: COc1cc(C2CC(=O)Nc3n[nH]cc32)ccc1OCc1cc(Cl)cc(Cl)c1Cl (stereo not drawn) [Example 31, 4-{3-methoxy-4-[(2,3,5-trichlorophenyl)methoxy]phenyl}-2H,4H,5H,6H,7H-pyrazolo[3,4-b]pyridin-6-one]
- IC50: 0.1 to 1 µM

SMILES: O=C1CC(c2ccc(OCc3ccccc3C(F)(F)F)cn2)c2c[nH]nc2N1 (stereo not drawn) [Example 63, 4-(5-{[2-(trifluoromethyl)phenyl]methoxy}pyridin-2-yl)-2H,4H,5H,6H, 7H-pyrazolo[3,4-b]pyridin-6-one]
- IC50: 0.1 to 1 µM

SMILES: COc1cc(C2CC(=O)Nc3n[nH]cc32)ccc1COc1ccc(C(F)F)cc1C(F)F (single isomer, unassigned; (+)) [Example 217, (+)-4-(4-{[2,4-bis(difluoromethyl)phenoxy]methyl}-3-methoxyphenyl)-2H,4H,5H,6H,7H-pyrazolo[3,4-b]pyridin-6-one]
- IC50: 0.1 to 1 µM

SMILES: COc1cc(C2CC(=O)Nc3n[nH]cc32)ccc1OCc1ccc(O)cc1C(F)(F)F (stereo not drawn) [Example 154, 4-(4-{[4-hydroxy-2-(trifluoromethyl)phenyl]methoxy}-3-methoxyphenyl)-2H,4H,5H,6H, 7H-pyrazolo[3,4-b]pyridin-6-one]
- mean pIC50: ≥ 8

SMILES: COC(=O)c1cc(C2CC(=O)Nc3n[nH]cc32)ccc1OCc1ccccc1C(F)(F)F (stereo not drawn) [Example 65, methyl 5-{6-oxo-2H,4H,5H,6H,7H-pyrazolo[3,4-b]pyridin-4-yl}-2-{[2-(trifluoromethyl)phenyl]methoxy}benzoate]
- IC50: 0.01 to 0.1 µM

SMILES: COc1cc(C2CC(=O)Nc3n[nH]cc32)ccc1OCc1ccccc1OC(F)F (stereo not drawn) [Example 17, 4-(4-{[2-(difluoromethoxy)phenyl]methoxy}-3-methoxyphenyl)-2H,4H,5H,6H,7H-pyrazolo[3,4-b]pyridin-6-one]
- IC50: 0.01 to 0.1 µM

SMILES: CCc1cc(C2CC(=O)Nc3n[nH]cc32)ccc1OCc1ccccc1C(F)(F)F (stereo not drawn) [Example 71, 4-(3-ethyl-4-{[2-(trifluoromethyl)phenyl]methoxy}phenyl)-2H,4H,5H,6H,7H-pyrazolo[3,4-b]pyridin-6-one]
- IC50: 0.01 to 0.1 µM

SMILES: CN(C)c1cc(OCc2ccccc2C(F)(F)F)ccc1C1CC(=O)Nc2n[nH]cc21 (stereo not drawn) [Example 162, 4-[2-(dimethylamino)-4-{[2-(trifluoromethyl)phenyl]methoxy}phenyl]-2H,4H,5H,6H, 7H-pyrazolo[3,4-b]pyridin-6-one]
- IC50: 0.1 to 1 µM

SMILES: COc1cc(C2CC(=O)Nc3n[nH]cc32)ccc1OCc1ccc(C(C)=O)cc1C(F)(F)F (stereo not drawn) [Example 41, 4-(4-{[4-acetyl-2-(trifluoromethyl)phenyl]methoxy}-3-methoxyphenyl)-2H,4H,5H,6H, 7H-pyrazolo[3,4-b]pyridin-6-one]
- mean pIC50: ≥ 8
